# Positions count from the first letter of the chain named. In names and notes the source's numbering stands. Several values for one entry are separate records, joined by “and”; a condition that tells them apart may be missing. Equal values may be shown once. Read-outs that look alike come from different tables or passages of the source. Where no end group is shown, it is not given here. [ ]: non-standard residue; d: D form.
# B1: pegylated RNase I: wild-type recombinant human RNase I reacted with mPEG-SS (conjugate, UniProt P07998 29-156, looked up)
# Ribonuclease pancreatic: KESRAKKFQRQHMDSDSSPSSSSTYCNQMMRRRNMTQGRCKPVNTFVHEPLVDVQNVCFQEKVTCKNGQGNCYKSNSSMHITDCRLTNGSRYPNCAYRTSPKERHIIVACEGSPYVPVHFDASVEDST
# modifications: mPEG-SS
# B2: RNase A: bovine RNase A (Examples 21, 23, 24, 28, 37, 40) (protein, UniProt P61823 27-150, looked up)
# Ribonuclease pancreatic: KETAAAKFERQHMDSSTSAASSSNYCNQMMKSRNLTKDRCKPVNTFVHESLADVQAVCSQKNVACKNGQTNCYQSYSTMSITDCRETGSSKYPNCAYKTTQANKHIIVACEGNPYVPVHFDASV
# B3: arDNase (+1): actin-resistant human DNase I with substitution A114R (protein, UniProt P24855 23-282, looked up, variant A114R)
# Deoxyribonuclease-1: LKIAAFNIQTFGETKMSNATLVSYIVQILSRYDIALVQEVRDSHLTAVGKLLDNLNQDAPDTYHYVVSEPLGRNSYKERYLFVYRPDQVSAVDSYYYDDGCEPCGNDTFNREPRIVRFFSRFTEVREFAIVPLHAAPGDAVAEIDALYDVYLDVQEKWGLEDVMLMGDFNAGCSYVRPSQWSSIRLWTSPTFQWLIPDSADTTATPTHCAYDRIVVAGMLLRGAVVPDSALPFNFQAAYGLSDQLAQAISDHYPVEVMLK
# B4: PEG-DNase: human DNase I conjugated with PEG (Example 14) (conjugate, UniProt P24855 23-282, looked up)
# Deoxyribonuclease-1: B3 Deoxyribonuclease-1 with R114A
# modifications: PEG
# B5: (PNA)2-PEG-DNase: 18-mer bis-PNA complementary to viral DNA conjugated with forked 2×20 kDa PEG and human DNase I (conjugate, UniProt P24855 23-282, looked up)
# Deoxyribonuclease-1: B3 Deoxyribonuclease-1 with R114A
# modifications: forked 2x20 kDa PEG, bis-PNA
# How the values were obtained:
# avian adenovirus = test system: avian adenovirus; design: species or system chickens; conditions: in vivo
# [1] = test system: herpes virus simplex I (HSV-I); experiment: Effect of tri-peptide P3 and P-PEG-R8 on replication of HSV-1 in vitro; assay type: cell-based; conditions: for HSV Titer: single values
# S-protein = S-protein (Bos taurus, UniProt P61823); conditions: N-terminal residues 1-15; cited from earlier work
# HepG2 intact cells = experiment: Cellular uptake of rhodamine-labeled DNase complexes, fluorimeter; assay type: cell-based, human; conditions: 30 min incubation
# Experimental: (§1) The cellular uptake of bovine DNase I (DNase), DNase-PEG and DNase-PEG-R8 complex is evaluated using the HepG2 cell line (human hepatocarcinoma cells ATCC, No-HB-8065). […] DNase I is labeled with fluorescent rodamine (*) according to the manufacturer's instruction (Pierce, Inc., Rockford, Ill.). Penetration of *DNase-PEG-K-R8 into HepG2 cells is compared to that of *DNase and *DNase-PEG after 30 min of incubation with HepG2 cells in DMEM at 37° C.
# (§2) To maintain the cells the growth medium 199 is used.
# HepG2 VV-infected cells = assay type: cell-based, human; conditions: 30 min incubation
# Experimental: as §1, §2
# HIV-1 (HXB2) = experiment: Plaque reduction assay in CD4+ HeLa cells of serially passaged virus; assay type: cell-based
# HIV-1 = HIV-1 infectivity on serial passage in MT-4 cells with drug; assay type: cell-based
# cytomegalovirus (CMV) = experiment: Anti-CMV activity in HEP-2 cells; conditions: for CMV Titer: single values
# cytomegalovirus = experiment: Antiviral activity of modified DNase I against cytomegalovirus in cell culture; conditions: 500 UA/ml, 48 h at 37° C.; for Virus Titer: single values
# [2] = test system: Herpes simplex virus, type I (HSV-1); experiment: Anti-HSV-1 activity in HEP-2 cells; assay type: cell-based; conditions: for HSV Titer: single values
# mouse leukemia virus [3] = experiment: Prevention of leukemia development in AKR mice; assay type: in vivo; conditions: 5,000 KuU/g s.c. every second day for a month
# From the text: Leukemia in AKR mice is known to be promoted by mouse leukemia virus. The lymphoid tissues of AKR mice contain mouse leukemia virus, and spontaneously develop leukemia, at the age of 6-8 months.
# mouse leukemia virus [4] = experiment: Treatment of viral lymphatic leukemia in 9-10 month old AKR mice; assay type: in vivo; conditions: 5 kUA/g s.c. every four days
# Experimental: To study the treatment effect of DNase and TDNase, the experiment is carried out on 9-10 month old AKR mice with manifestations of lymphoid leukemia. A significant increase in the size of lymph nodes, thymus, liver and spleen and high mitotic index in lymphoid tissues is observed in these animals. The treated groups include 24 mice in each while the control group includes 19 mice. Administration of DNase I and TDNase every four days s.c., in a dose of 5,000 KuU/g body weight, results in a decrease of lymphatic tissues and mitotic index to normal levels, and in an increase in longevity of animals. However, a more profound effect is obtained in animals receiving TDNase than DNase, and receiving TDNase-PEG than TDNase, as is shown in Table 25.
# Vaccinia virus = assay type: cell-based; conditions: 500 KuU/ml, 48 h at 37° C.
# dsDNA [5] = conditions: physiological monovalent cation strength; cited from earlier work
# ssRNA corona virus = experiment: Antiviral efficacy of pegylated human RNase I
# [6] = test system: ssRNA equine encephalitis virus; assay type: cell-based; conditions: 500 UA/ml
# ssRNA coronavirus = experiment: RNase A on virus replication in HEP-2 cells; conditions: 200 UA/ml
# honeybee paralysis virus = assay type: in vivo, honeybees; conditions: of 100 infected
# Experimental: Infectious titer of HBVP is […] per ml. The honeybees are infected by feeding the viral emulsion. Insects are sprayed by an aerosol of enzyme diluted in physiological solution 3 hours before the inoculation of virus. […] Treatment of insects 6 hours after inoculation of virus still protected them from development of disease.
# dsRNA reovirus = experiment: RNase A on virus replication in HEP-2 cells; conditions: 200 UA/ml
# dsDNA [7] = experiment: Hydrolysis of dsDNA in human serum by native, multi-charged and actin-resistant DNase I variants
molecule,measurement,setting,value
[dS]-His-[dD] [P3],chickens that survive,avian adenovirus,19
same,Average Titer,[1]; 10 UA/ml,5.7 logTCD50/ml
same,HSV Titer,[1]; 10 UA/ml,5.8 logTCD50/ml and 5.6 logTCD50/ml and 5.7 logTCD50/ml
same,Average Titer,[1]; 50 UA/ml,5.4 logTCD50/ml
same,HSV Titer,[1]; 50 UA/ml,5.5 logTCD50/ml and 5.4 logTCD50/ml and 5.3 logTCD50/ml
same,Average Titer,[1]; 100 UA/ml,5.1 logTCD50/ml
same,HSV Titer,[1]; 100 UA/ml,5.2 logTCD50/ml and 5.3 logTCD50/ml and 5.1 logTCD50/ml
same,Average Titer,[1]; 500 UA/ml,4.8 logTCD50/ml
same,HSV Titer,[1]; 500 UA/ml,4.8 logTCD50/ml and 4.9 logTCD50/ml and 4.7 logTCD50/ml
KETAAAKFERQHMDS [bovine S-peptide],Kd,S-protein,< 0.001 µM
*DNase,"OD (430 nm), cellular uptake",HepG2 intact cells,37
same,"OD (430 nm), cellular uptake",HepG2 VV-infected cells,48
Cc1cn([C@H]2C[C@H](N=[N+]=[N-])[C@@H](CO)O2)c(=O)[nH]c1=O [AZT],shift in sensitivity,HIV-1 (HXB2); sixth passage,> 1000 fold
same,IC50,HIV-1 (HXB2); virus of fourth passage in drug-treated MT-4 cells,> 50 µM
same,IC50,HIV-1 (HXB2); virus of sixth passage,> 250 µM
same,HIV-1 infectivity,HIV-1; passage 0,2.8 log10TCID50/ml
same,HIV-1 infectivity,HIV-1; passage 1,2.6 log10TCID50/ml
same,HIV-1 infectivity,HIV-1; passage 2,3.8 log10TCID50/ml
same,HIV-1 infectivity,HIV-1; passage 5,4.7 log10TCID50/ml
same,HIV-1 infectivity,HIV-1; passage 15,5.9 log10TCID50/ml
DNase,Average Titer,cytomegalovirus (CMV); 50 UA/ml,5.1 logTCD50/ml
same,CMV Titer,cytomegalovirus (CMV); 50 UA/ml,5.1 logTCD50/ml and 5.0 logTCD50/ml
same,Average Titer,cytomegalovirus (CMV); 100 UA/ml,4.5 logTCD50/ml
same,CMV Titer,cytomegalovirus (CMV); 100 UA/ml,4.6 logTCD50/ml and 4.5 logTCD50/ml and 4.7 logTCD50/ml
same,Average Titer,cytomegalovirus (CMV); 500 UA/ml,3.8 logTCD50/ml
same,CMV Titer,cytomegalovirus (CMV); 500 UA/ml,3.8 logTCD50/ml and 3.9 logTCD50/ml and 3.7 logTCD50/ml
same,Average Titer,cytomegalovirus (CMV); [0] UA/ml,5.5 logTCD50/ml
same,CMV Titer,cytomegalovirus (CMV); [0] UA/ml,5.4 logTCD50/ml and 5.6 logTCD50/ml and 5.5 logTCD50/ml
same,Average Titer,cytomegalovirus,6.5 logTCD50/0.1 ml
same,Virus Titer,cytomegalovirus,6.3 logTCD50/0.1 ml and 6.4 logTCD50/0.1 ml and 6.5 logTCD50/0.1 ml
same,Average Titer,[2]; 10 UA/ml,5.4 logTCD50/ml
same,HSV Titer,[2]; 10 UA/ml,5.4 logTCD50/ml and 5.5 logTCD50/ml and 5.3 logTCD50/ml
same,Average Titer,[2]; 50 UA/ml,5.1 logTCD50/ml
same,HSV Titer,[2]; 50 UA/ml,5.1 logTCD50/ml and 5.0 logTCD50/ml
same,Average Titer,[2]; 100 UA/ml,4.5 logTCD50/ml
same,HSV Titer,[2]; 100 UA/ml,4.6 logTCD50/ml and 4.5 logTCD50/ml and 4.7 logTCD50/ml
same,Average Titer,[2]; 500 UA/ml,3.8 logTCD50/ml
same,HSV Titer,[2]; 500 UA/ml,3.8 logTCD50/ml and 3.9 logTCD50/ml and 3.7 logTCD50/ml
same,development of leukemia,mouse leukemia virus [3],preclude the development of leukemia
same,Liver,mouse leukemia virus [4],941 ± 33 g
same,Longevity (weeks),mouse leukemia virus [4],16 ± 1.0 weeks
same,Mitotic Index,mouse leukemia virus [4],0.18 ± 0.02
same,Average log TCD50,Vaccinia virus,4.7 log TCD50
same,log TCD50,Vaccinia virus; single values,4.6 log TCD50 and 4.8 log TCD50
EndoG: sugar-nonspecific 29 kDa human endonuclease,inhibition,dsDNA [5],about 15 fold
[dS]-His,chickens that survive,avian adenovirus,18
B1,antiviral efficacy compared with unpegylated enzyme,ssRNA corona virus,enhances its antiviral efficacy
B2,Average Titer,[6],5.26 logTCD50/0.1 ml
same,Titer,[6]; single values,5.2 logTCD50/0.1 ml and 5.4 logTCD50/0.1 ml
same,Average Titer,ssRNA coronavirus,1.5 logTCD50/0.1 ml
same,Titer,ssRNA coronavirus; single values,1.4 logTCD50/0.1 ml and 1.6 logTCD50/0.1 ml and 1.5 logTCD50/0.1 ml
same,Surviving Honeybees,honeybee paralysis virus; 200 UA/ml,4
same,Surviving Honeybees,honeybee paralysis virus; 500 UA/ml,11
same,Surviving Honeybees,honeybee paralysis virus; 1000 UA/ml,67
same,Surviving Honeybees,honeybee paralysis virus; 1500 UA/ml,100
same,Average Titer,dsRNA reovirus,4.0 logTCD50/0.1 ml
same,Titer,dsRNA reovirus; single values,4.0 logTCD50/0.1 ml and 4.1 logTCD50/0.1 ml and 3.9 logTCD50/0.1 ml
B3,Average T50 (min) 50% DNA hydrolysis,dsDNA [7],3 min
same,Time T50 (min) 50% DNA hydrolysis,dsDNA [7]; single values of triplicate,2 min and 3 min and 4 min
B4,Average Titer,cytomegalovirus,3.4 logTCD50/0.1 ml
same,Virus Titer,cytomegalovirus,3.2 logTCD50/0.1 ml and 3.4 logTCD50/0.1 ml and 3.5 logTCD50/0.1 ml
B5,Average Titer,cytomegalovirus,0.3 logTCD50/0.1 ml
same,Virus Titer,cytomegalovirus,0.2 logTCD50/0.1 ml and 0.3 logTCD50/0.1 ml and 0.4 logTCD50/0.1 ml

# Source: US10335372B2, “Compositions with modified nucleases targeted to viral nucleic acids and methods of use for prevention and treatment of viral diseases” (priority 2004, dated 2019)
